Test results published in the supplement of paper PMC10307832.

Legend:
Experiment in all cases: relative viability (nuclei count vs DMSO), 5 days (fraction); higher = more cells survive
Crenolanib + Palbociclib = compound: CC1(COc2ccc3c(c2)ncn3-c2ccc3cccc(N4CCC(N)CC4)c3n2)COC1 [Crenolanib] + CC(=O)c1c(C)c2cnc(Nc3ccc(N4CCNCC4)cn3)nc2n(C2CCCC2)c1=O [Palbociclib] (partner 0.5 µM)
How it was run: (§1)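 Relative viability is defined as nuclei in treated wells over nuclei in vehicle wells. Duplicate plates were run and medians reported. Lung cancer cell lines in 1536-well plates were dosed by pin tool one day after seeding, with one drug or with a fixed anchor-drug dose plus five library-drug doses (not always all listed) in √10 steps, and nuclei were counted after 5 days.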

Tivantinib + Decitabine = compound: O=C1NC(=O)[C@@H](c2cn3c4c(cccc24)CCC3)[C@@H]1c1c[nH]c2ccccc12 [Tivantinib] + Nc1ncn([C@H]2C[C@H](O)[C@@H](CO)O2)c(=O)n1 [Decitabine] (partner 2 µM)
How it was run: as §1

Crenolanib + Pemetrexed = compound: CC1(COc2ccc3c(c2)ncn3-c2ccc3cccc(N4CCC(N)CC4)c3n2)COC1 [Crenolanib] + Nc1nc2[nH]cc(CCc3ccc(C(=O)N[C@@H](CCC(=O)O)C(=O)O)cc3)c2c(=O)[nH]1 [Pemetrexed] (partner 0.2 µM)
How it was run: as §1

Tivantinib + Alpelisib = compound: O=C1NC(=O)[C@@H](c2cn3c4c(cccc24)CCC3)[C@@H]1c1c[nH]c2ccccc12 [Tivantinib] + Cc1nc(NC(=O)N2CCC[C@H]2C(N)=O)sc1-c1ccnc(C(C)(C)C(F)(F)F)c1 [Alpelisib] (partner 2 µM)
How it was run: as §1

Row | Cell Line | relative viability (Crenolanib + Palbociclib; first compound 0.01 µM) | relative viability (Crenolanib + Palbociclib; first compound 0.03162 µM) | relative viability (Crenolanib + Palbociclib; first compound 0.1 µM) | relative viability (Crenolanib + Palbociclib; first compound 0.3162 µM) | relative viability (Crenolanib + Palbociclib; first compound 1 µM) | relative viability (Tivantinib + Decitabine; first compound 0.01 µM) | relative viability (Tivantinib + Decitabine; first compound 0.03162 µM) | relative viability (Tivantinib + Decitabine; first compound 0.1 µM) | relative viability (Tivantinib + Decitabine; first compound 0.3162 µM) | relative viability (Crenolanib + Pemetrexed; first compound 0.01 µM) | relative viability (Crenolanib + Pemetrexed; first compound 0.03162 µM) | relative viability (Crenolanib + Pemetrexed; first compound 0.1 µM) | relative viability (Crenolanib + Pemetrexed; first compound 0.3162 µM) | relative viability (Crenolanib + Pemetrexed; first compound 1 µM) | relative viability (Tivantinib + Alpelisib; first compound 0.01 µM) | relative viability (Tivantinib + Alpelisib; first compound 0.03162 µM) | relative viability (Tivantinib + Alpelisib; first compound 0.3162 µM) | relative viability (Tivantinib + Alpelisib; first compound 0.1 µM)
1 | NCI-H441 | 0.261 | 0.236 | 0.217 | 0.262 | 0.242 | 0.22 | 0.261 | 0.139 | 0.239 | 0.261 | 0.278 | 0.269 | 0.312 | 0.273 | 0.736 | 0.648 | 0.76 | –
2 | NCI-H322M | 0.497 | 0.483 | 0.482 | 0.479 | 0.496 | 0.615 | 0.703 | 0.715 | – | 0.597 | 0.583 | 0.631 | 0.6 | 0.605 | 0.699 | 0.891 | 0.546 | 0.719
3 | EPLC-272H | 0.336 | 0.299 | 0.305 | 0.339 | 0.313 | 0.389 | 0.331 | 0.383 | 0.31 | 0.322 | 0.342 | 0.346 | 0.336 | 0.353 | 0.975 | 0.922 | 0.672 | 0.836
4 | COR-L23 | 0.245 | 0.319 | 0.299 | 0.306 | 0.266 | 0.496 | 0.446 | 0.433 | 0.445 | 0.185 | 0.189 | 0.201 | 0.199 | 0.202 | 0.864 | 0.754 | 0.905 | 0.671
5 | NCI-H2126 | 0.343 | 0.352 | 0.335 | 0.352 | 0.372 | 0.57 | 0.549 | 0.587 | 0.547 | 0.725 | 0.678 | 0.694 | 0.715 | 0.605 | 0.745 | 0.739 | 0.684 | 0.749
6 | LCLC-103H | 0.541 | 0.441 | 0.465 | 0.447 | 0.492 | 0.658 | 0.762 | 0.731 | 0.708 | 0.453 | 0.45 | 0.476 | 0.503 | 0.48 | 0.905 | 0.938 | 0.86 | 0.839
7 | NCI-H1975 | 0.623 | 0.575 | 0.498 | 0.568 | 0.555 | 0.446 | 0.395 | 0.358 | 0.34 | 0.306 | 0.316 | 0.289 | 0.284 | 0.312 | 0.645 | 0.676 | 0.5 | 0.602
8 | NCI-H1793 | 0.295 | 0.321 | 0.302 | 0.36 | 0.43 | 0.502 | 0.497 | 0.495 | 0.404 | 1.02 | 0.912 | 0.835 | 1.08 | 0.993 | 0.678 | 0.858 | – | 0.703
9 | NCI-H2085 | – | 0.46 | 0.475 | 0.512 | 0.485 | 0.534 | 0.556 | 0.554 | 0.551 | – | 0.88 | 0.878 | 0.936 | 0.949 | 1.03 | 0.934 | 0.837 | 1.01
10 | NCI-H1299 | – | – | – | – | – | – | – | – | – | – | – | – | – | – | 1.09 | 1.01 | 1.02 | 1.01
11 | NCI-H1703 | – | – | – | – | – | – | – | – | – | – | – | – | – | – | 0.499 | 0.329 | 0.334 | 0.256
12 | NCI-H2228 | 0.758 | 0.866 | 0.629 | 0.92 | 0.815 | – | – | – | – | 0.3 | 0.33 | 0.34 | 0.337 | 0.324 | 0.842 | 0.644 | 0.695 | 0.618
13 | NCI-H596 | – | – | – | – | – | 1.12 | 1.07 | 1.01 | 1.12 | 0.462 | 0.481 | 0.47 | 0.513 | 0.507 | 0.623 | 0.397 | 0.433 | 0.358
14 | ChaGo-K-1 | 0.955 | 0.941 | 0.913 | 0.821 | 0.986 | 0.541 | 0.52 | 0.562 | 0.522 | 0.26 | 0.256 | 0.255 | 0.253 | 0.27 | – | – | – | –
15 | NCI-H522 | 1.15 | 1.06 | 0.963 | 0.881 | 0.971 | 0.715 | 0.551 | 0.633 | 0.535 | 0.976 | 1.19 | 1.06 | 1.06 | 0.738 | – | – | – | –
16 | NCI-H1648 | 0.254 | – | 0.262 | 0.29 | 0.267 | – | 0.507 | 0.513 | 0.397 | 0.742 | – | 0.821 | 0.699 | 0.716 | – | – | – | –
17 | NCI-H1563 | – | – | – | – | – | – | – | – | – | 0.736 | 0.679 | 0.711 | 0.759 | 0.742 | 1.04 | 0.89 | 1.06 | 0.932
18 | NCI-H2342 | 0.521 | 0.545 | 0.574 | 0.533 | 0.598 | 0.845 | 0.789 | 0.699 | 0.624 | 0.749 | 0.72 | 0.691 | 0.771 | 0.754 | – | – | – | –
19 | SW 900 | 0.591 | – | 0.449 | 0.523 | 0.554 | 0.461 | 0.46 | 0.482 | 0.443 | 0.502 | – | 0.48 | 0.509 | 0.484 | – | – | – | –
20 | A549 | – | – | – | – | – | 0.246 | 0.276 | 0.228 | 0.294 | – | – | – | – | – | 0.769 | 0.818 | 0.79 | 0.708
21 | NCI-H727 | 0.72 | 0.676 | 0.678 | 0.646 | 0.699 | 0.748 | 0.924 | 0.882 | – | – | – | – | – | – | 0.537 | 0.526 | – | 0.505
22 | NCI-H1650 | 0.397 | 0.281 | 0.324 | 0.308 | 0.387 | 0.406 | 0.389 | 0.416 | 0.413 | 0.438 | 0.395 | 0.38 | 0.371 | 0.459 | – | – | – | –
23 | ABC-1 | 0.775 | 0.638 | 0.549 | 0.643 | 0.899 | 1.23 | 1.22 | 0.825 | 0.968 | – | – | – | – | – | 0.984 | 0.995 | 0.825 | 0.742
